Laboratory results: US8088820B2, “Substituted tetracycline compounds for the treatment of malaria” (Paratek Pharmaceuticals, Inc., priority 2001, dated 2012)

Test: in vitro
Details: African green monkey (COS-1); Chinese hamster (CHO)

| Compound | IC50 at 24 h [mg/L] |
| --- | --- |
| C[C@H]1c2cccc(O)c2C(=O)C2=C(O)[C@]3(O)C(=O)C(C(N)=O)=C(O)[C@@H](N(C)C)[C@@H]3[C@@H](O)[C@@H]21 [doxycycline] | > 25 |
| CN(C)c1ccc(O)c2c1C[C@H]1C[C@H]3[C@H](N(C)C)C(O)=C(C(N)=O)C(=O)[C@@]3(O)C(O)=C1C2=O [minocycline] | > 25 |
